Like-named read-outs stand apart in the source and are kept apart here.
Experiments:
Cervix HeLa cells = experiment: Cell proliferation, 24 h drug exposure; format: cell-based, human; conditions: Cervix HeLa, 24 h, read-out: IC50 for proliferation cell rate
Protocol: (§1) All metastatic (breast MDA-MB231, MDA-MB468, cervix HeLa, prostate PC3, colorectal HCT116, COLO205, glioblastoma U373), low-metastatic (breast MCF-7) cancer and non-cancer (fibroblast 3T3, cardiomyocytes H9C2) cell lines (American Type Culture Collection, Rockville, MD, USA) used in this study were cultured in Petri dishes in 20 mL of Dulbecco’s Modified Eagle’s Medium (DMEM, Sigma, MO, USA) supplemented with 10% fetal bovine serum (Biowest, Mexico) and 10,000 U penicillin/streptomycin (Sigma-Aldrich, MO, USA). […] For growth and maintenance, cells were incubated in 5% CO2/95% air at 37°C and kept until 80–90% of confluence was reached. Then, cells were harvested, washed by centrifugation and resuspended in Krebs-Ringer buffer (KR, 125 mM NaCl, 5 mM KCl, 25 mM Hepes, 1 mM MgCl2, 1 mM KH2PO4, 1.4 mM CaCl2, pH 7.4) for further use. For experimentation, cancer cells (3–5 x 10^6 cells) were cultured in DMEM (with 25 mM glucose) for 24 h in the absence of drugs. Afterwards, old-medium was replaced with fresh DMEM medium (with 25 mM glucose) in the absence (control, non-treated cells) or in the presence of logarithmic concentrations of Aur and MA for 24 h more, under the same culture conditions described above. Viability of cultured cells was determined by the trypan blue exclusion assay. The protein concentration was determined by the Lowry method.
(§2) For cell proliferation in the presence of drugs, cancer cells (20 x 10^3 cells/well) were grown in 96-well plates containing DMEM (Sigma-Aldrich) plus 10% bovine fetal serum for 24 h. […] The effect of these drugs on cell proliferation was determined in 96-well plates by the MTT (3-[4,5-dimethyl-thiazol-2-yl]-2,5-diphenyltetrazolium bromide) assay. The viability of cancer cells was > 95% after treatment with drugs.

Glioblastoma U373 cells = experiment: Cell proliferation, 24 h drug exposure; format: cell-based, human; conditions: Glioblastoma U373, 24 h, read-out: IC50 for proliferation cell rate
Protocol: as §1, §2

Breast MCF-7 cells = experiment: Cell proliferation, 24 h drug exposure; format: cell-based, human; conditions: Homo sapiens, MCF7; Breast MCF-7 (low metastatic); 24 h; read-out: IC50 for proliferation cell rate
Protocol: as §1
(§3) For cell proliferation in the presence of drugs, cancer cells (20 x 10^3 cells/well) were grown in 96-well plates containing DMEM (Sigma-Aldrich) plus 10% bovine fetal serum for 24 h. Afterwards, Aur or MA (0.01, 0.1, 10 and 100 μM) were added to the cell cultures and incubated for additional 24 h. The effect of these drugs on cell proliferation was determined in 96-well plates by the MTT (3-[4,5-dimethyl-thiazol-2-yl]-2,5-diphenyltetrazolium bromide) assay. The viability of cancer cells was > 95% after treatment with drugs.

Breast MDA-MB-231 cells = experiment: Cell proliferation, 24 h drug exposure; format: cell-based, human; conditions: Breast MDA-MB-231, 24 h, read-out: IC50 for proliferation cell rate
Protocol: as §1, §3

Colorectal HCT116 cells = experiment: Cell proliferation, 24 h drug exposure; format: cell-based, human; conditions: Homo sapiens, HCT-116; Colorectal HCT116; 24 h; read-out: IC50 for proliferation cell rate
Protocol: as §1, §3

3T3 mouse fibroblasts = experiment: Cell proliferation, 24 h drug exposure (non cancer cells); format: cell-based; conditions: Fibroblast, 3T3 mouse fibroblasts (non cancer), read-out: IC50 for proliferation cell rate
Protocol: as §1, §3

[1] = tested on: H9C2 mouse cardiomyocytes; experiment: as above; format: cell-based; conditions: read-out: IC50 for proliferation cell rate
Protocol: as §1, §3

cancer cell lines = experiment: Cancer cell proliferation, pooled over the cell lines of Table 1; format: cell-based, human; conditions: for IC50: Homo sapiens, cancer cells, 24 h, read-out: IC50 values on cancer cell proliferation (range over cell lines)
Protocol: as §1, §2

Breast MDA-MB-468 cells = experiment: Cell proliferation, 24 h drug exposure; format: cell-based, human; conditions: Homo sapiens; Breast MDA-MB-468; 24 h; read-out: IC50 for proliferation cell rate
Protocol: as §1, §3

Colorectal COLO205 cells = experiment: Cell proliferation, 24 h drug exposure; format: cell-based, human; conditions: Homo sapiens, COLO 205; Colorectal COLO205; 24 h; read-out: IC50 for proliferation cell rate
Protocol: as §1, §3

non-cancer cells = experiment: Non-cancer cell proliferation, pooled; format: cell-based; conditions: Mus musculus, 24 h, read-out: IC50 values for non-cancer cells (range)
Protocol: as §1, with “For experimentation, cancer cells (3–5 x 10^6 cells) were cultured in DMEM (with 25 mM glucose) for 24 h in the absence of drugs. Afterwards, old-medium was replaced with fresh DMEM medium (with 25 mM glucose) in the absence (control, non-treated cells) or in the presence of logarithmic concentrations of Aur and MA for 24 h more, under the same culture conditions described above.” left out
as §2, with “The viability of cancer cells was > 95% after treatment with drugs.” left out

[2] = tested on: HeLa, MDA MB-231, and A548 (lung cancer) cells; experiment: Oxygen consumption of cancer cells; format: cell-based; conditions: Homo sapiens, MDA MB-231, A548 cells
Protocol: For oxidative phosphorylation (OxPhos) flux, cells (2–5 mg protein/mL) were incubated at 37°C in air saturated KR medium plus 5 mM glucose. To distinguish the oxygen consumption associated to OxPhos, the cells were incubated with 5 μM oligomycin (Sigma-Aldrich, MO, USA), a potent, specific, and permeable inhibitor of the mitochondrial ATP synthase. The net OxPhos rate was determined by using a Clark type electrode, as previously described and by using a high-resolution respirometer (Oroboros Instruments, Innsbruck, Austria) at 37°C. The contribution of OxPhos and glycolysis to the cellular ATP supply was determined, respectively, from the net OxPhos rate (oligomycin-sensitive respiration) multiplied by the ATP/O or P»/O2 ratio that corresponds to 2.5 or 5, and from the rate of lactate production, assuming a stoichiometry of 1 mol of ATP produced per 1 mol of lactate produced.

[3] = tested on: HeLa, U373, HCT116, MDA-MB-231 and MDA-MB-468 cells; experiment: Cell invasiveness, Boyden chamber; format: cell-based, human; conditions: perhexiline 4–20 μM; 24 h
Protocol: The 96-multiwell Boyden chambers (Merck Millipore, MA, USA) assay was performed for cellular invasiveness detection. Cancer cells (5 × 10^4 cells/well) were re-suspended in free-serum DMEM and placed in the upper Boyden chamber compartment. Free-serum DMEM was also placed in the lower compartment of the chamber. Afterwards, the Boyden chamber was placed at 37°C and 95% air/5% CO2 for 24 h. Invasive cancer cells within the lower chamber compartment were detected by using the calcein-AM (60 nM, 1 h) assay at 37°C. Calcein-fluorescence was measured at λexcitation = 485 nm and λemission = 520 nm in a Nunclon microplate reader (Roskilde, Denmark).
S1 Figure. Cancer invasiveness assay in metastatic cancer cells exposed to MA (A) and perhexiline (B) for 24 h. All cancer cell invasiveness was compared with MDA-MB-231 cells, which are cancer cells with the highest invasiveness ability. n=3; *P < 0.05 vs. MDA-MB-231 non-treated cells.

[4] = tested on: MDA-MB-231 and MDA-MB-468 cells; experiment: Cell migration, wound healing assay; format: cell-based; conditions: Homo sapiens; 15 μM perhexiline
Protocol: The wound healing assay was performed for cell migration detection. In petri dishes with full DMEM, cancer cells (5 x 10^6 cells/well) were cultured at 37°C under 95% air and 5% CO2 until 80–90% confluence was attained. Afterwards, cell culture was wounded with a 1 mL pipette tip, washed twice with PBS (155 mM NaCl, 1.5 mM KH2PO4, 2.7 mM NaH2PO4, pH 7.2) and subsequently incubated at 37°C with fresh non-serum DMEM. Cellular migration images were taken in an inverted microscope (Zeiss, Thornwood, NY, USA) after 0 and 24 h incubation time. Using a graduated reticule (Zeiss, Thornwood, NY, USA), cellular migration was assessed from the petri dish’s border to its center distance travelled.
S2 Figure. Migratory capacity in metastatic triple negative breast cancer cells exposed to perhexiline. n=3; *P < 0.05 vs. Control (Non-treated cells)

Prostate PC3 cells = experiment: Cell proliferation, 24 h drug exposure; format: cell-based, human; conditions: Homo sapiens, PC-3; Prostate PC3; 24 h; read-out: IC50 for proliferation cell rate
Protocol: as §1, §3

HeLa cells = tested on: HeLa cells; design: method as in PMID 33333716; conditions: CP alone at doses of Table 5; cited from earlier work

| IC50 (Cervix HeLa cells; Homo sapiens) | IC50 (Glioblastoma U373 cells; Homo sapiens, U373 MG) | IC50 (Breast MCF-7 cells) | IC50 (Breast MDA-MB-231 cells; Homo sapiens) | IC50 (Colorectal HCT116 cells) | IC50 (Breast MDA-MB-468 cells) | IC50 (Colorectal COLO205 cells) | IC50 (cancer cell lines) | IC50 (Prostate PC3 cells) | Structure (SMILES) | IC50 (3T3 mouse fibroblasts) | IC50 [1] | effect on cancer cell proliferation (cancer cell lines; up to 500 μM, 24 h incubation) | IC50 (non-cancer cells) | inhibition at 10 µM [2] | inhibition of cell invasiveness [3] | inhibition at 15 µM [4] | IC50 (Cervix HeLa cells) | IC50 (Glioblastoma U373 cells) | IC50 (Breast MDA-MB-231 cells) | effect on proliferation rate, OxPhos, cellular invasiveness (HeLa cells) |
| --- | --- | --- | --- | --- | --- | --- | --- | --- | --- | --- | --- | --- | --- | --- | --- | --- | --- | --- | --- | --- |
| > 500 µM | > 500 µM | > 500 µM | 463 µM | > 500 µM | – | – | – | – | CC1=C(CC(=O)O)c2cc(F)ccc2/C1=C\c1ccc([S+](C)[O-])cc1 (stereo not drawn) [Sulindac] | > 500 µM | > 500 µM | not significantly affected | – | – | – | – | – | – | – | – |
| 4 ± 3 µM | 18.5 ± 2 µM | 20.5 ± 10 µM | 11 ± 0.6 µM | 16 ± 7 µM | 15 ± 0.8 µM | 16 ± 5 µM | 4 to 20 µM | – | C1CCC(C(CC2CCCCN2)C2CCCCC2)CC1 (stereo not drawn) [Perhexiline] | 81.5 ± 8 µM | > 100 µM | – | 30 to 100 µM | 36 to 70% | 37–53% | 50 to 60% | – | – | – | – |
| 31 ± 13 µM | 131 ± 41 µM | 126 ± 65 µM | 111 ± 45 µM | 147 ± 58 µM | – | – | 31 to 147 µM | 31 ± 16 µM | CCC(C)(C)C(=O)O[C@H]1C[C@@H](C)C=C2C=C[C@H](C)[C@H](CC[C@@H]3C[C@@H](O)CC(=O)O3)[C@H]21 [Simvastatin] | 222 ± 60 µM | 100 ± 32 µM | – | 100 to 222 µM | – | – | – | – | – | – | – |
| – | – | – | – | – | – | – | – | – | N.N.[Cl][Pt][Cl] [CP, cisplatin] | – | – | – | – | – | – | – | > 1000 µM | > 1000 µM | 72 µM | no effect |
